The conditions of data set [1]: in vivo; cited from earlier work.
The subject of another data set is PTZ-induced seizures. Briefly: Anticonvulsant action in the pentylenetetrazol (PTZ) seizure model after 15-day oral pretreatment. It is filed as in vivo, C57BL/6 male mice. The procedure: The anticonvulsant action of a preparation according to the invention, consisting of alpha-lactalbumin and sodium butyrate, was evaluated in comparison with that of the single components alpha-lactalbumin and sodium butyrate in the above-mentioned animal model, using the convulsant agent pentylenetetrazol
The experiment was carried out on groups of 10 C57BL/6 male mice (Charles River Italy) for each tested dose (control groups of 10 C57BL/6 male mice were also used).
The animals of all groups were subcutaneously administered pentylenetetrazol (65 mg/kg) at the end of a 15-day pretreatment with sodium butyrate, alpha-lactalbumin, alpha-lactalbumin+sodium butyrate or vehicle, i.e. water (control), respectively.
This pretreatment was carried out by oral administration of a solution of either one of sodium butyrate, alpha-lactalbumin, alpha-lactalbumin+sodium butyrate in the vehicle, consisting of water, and of the vehicle (water) alone.
Firstly, three groups of 10 mice were orally administered 30 mg/day, 100 mg/day and 250 mg/day of sodium butyrate respectively, in the form of an aqueous solution contained in the bottle of the cage, for 15 days. The bottle of the cage of the control group (10 mice) only contained water.
On the 16th day, the animals of the four groups were subcutaneously administered 65 mg/kg of pentylenetetrazol.
Then, three groups of 10 mice were orally administered 125 mg/day, 250 mg/day and 375 mg/day of alpha-lactalbumin respectively, in the form of an aqueous solution contained in the bottle of the cage, for 15 days. The bottle of the cage of the control group (10 mice) only contained water.
On the 16th day, the animals of the four groups were subcutaneously administered 65 mg/kg of pentylenetetrazol (PTZ).
Finally, a first group of 10 mice was orally administered 125 mg alpha-lactalbumin+100 mg sodium butyrate per day, a second group of 10 mice was orally administered 250 mg alpha-lactalbumin+100 mg sodium butyrate per day, a third group of 10 mice was orally administered 375 mg alpha-lactalbumin+100 mg sodium butyrate per day, in the form of an aqueous solution contained in the bottle of the cage, for 15 days. The bottle of the cage of the control group (10 mice) only contained water.

The conditions of data set [2]: cited from earlier work.
In a further data set the test system is audiogenic seizures. Briefly: Protection against seizures in experimental models of epilepsy (audiogenic seizures in genetically epilepsy-prone-9 rats). The conditions noted are these: different experimental models of epilepsy; no increase on continuing up to 12 days; not dose dependent. In kind it is in vivo. The text has this: Also the results obtained both in experimental models and in clinical trials confirm the need of repeated administrations for several days.

Data set [3] has as its system seizures induced by acoustic stimulation. As to conditions: after three weeks of treatment; cited from earlier work.

Take `CCCC(=O)O` [butyric acid]: the cerebral uptake in data set [1] is roughly 0.006%.

For `CCCC(=O)[O-].[Na+]` [sodium butyrate, reference compound], the “animals that experienced seizures induced by pentylenetetrazol” value in the data set with PTZ-induced seizures (sodium butyrate 30, 100 or 250 mg/day oral in drinking water for 15 days, PTZ 65 mg/kg s.c. on day 16, no significant difference from control) is on record as 100%. The “activity towards the seizures induced by pentylenetetrazol” value with PTZ-induced seizures (sodium butyrate alone) was “devoid of any activity”.

On to alpha-lactalbumin, for which the “time after oral administration to demolition into medium-small peptides in the stomach” value in data set [2] was 15 min. Moreover, the “effect on percentage of mice with PTZ-induced seizures” value in the data set with PTZ-induced seizures (alpha-lactalbumin 125 mg/day alone, oral for 15 days) is “does not significantly decrease”. Further, the “animals showing PTZ-induced seizures” value in the data set on PTZ-induced seizures (alpha-lactalbumin 375 mg/day oral for 15 days, PTZ 65 mg/kg s.c. on day 16) is reported as “less than 40%”. Further, the “course of percentage of animals with PTZ-induced seizures over dose” value in the data set with PTZ-induced seizures (alpha-lactalbumin 125, 250, 375 mg/day oral for 15 days) is “decrease in a dose-dependent fashion”. Besides, the “days of repeated administrations until protective action against seizures occurs” value with audiogenic seizures is on record as “at least 6 days”. For the same molecule, in data set [3], the “duration of protective effect against seizures after suspension of treatment” value is “at least one month”.

Source of the values: patent publication US11554162B2, “Pharmaceutical or food supplement preparation based on alpha-lactalbumin” (KOLFARMA S.R.L., priority 2018, dated 2023).
